Data: paper PMC5100903, “Tissue Kallikrein Inhibitors Based on the Sunflower Trypsin Inhibitor Scaffold – A Potential Therapeutic Intervention for Skin Diseases” (PLoS ONE, 2016)
Read-outs that look alike come from different tables or passages of the source. Positions of bridges follow the written chain, without caps; N, C: chain ends. Residues, ends and D or L forms follow the SMILES beside them.

Legend:
Assay in all cases: biochemical
Human Plasma Plasmin = target: T1, Human Plasma Plasmin (Homo sapiens, UniProt P00747)
T1 construct: human plasma plasmin (purified from human plasma); purchased BioVision; host or cells: human plasma
T1 sequence (P00747 581-810 limits assumed): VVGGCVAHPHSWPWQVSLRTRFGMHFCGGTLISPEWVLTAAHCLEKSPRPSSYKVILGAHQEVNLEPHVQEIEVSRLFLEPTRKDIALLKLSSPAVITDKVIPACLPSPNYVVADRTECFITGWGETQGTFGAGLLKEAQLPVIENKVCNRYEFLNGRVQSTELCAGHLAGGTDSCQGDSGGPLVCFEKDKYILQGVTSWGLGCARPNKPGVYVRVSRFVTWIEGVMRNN
T1 sequence (P00747 98-580 partner limits assumed): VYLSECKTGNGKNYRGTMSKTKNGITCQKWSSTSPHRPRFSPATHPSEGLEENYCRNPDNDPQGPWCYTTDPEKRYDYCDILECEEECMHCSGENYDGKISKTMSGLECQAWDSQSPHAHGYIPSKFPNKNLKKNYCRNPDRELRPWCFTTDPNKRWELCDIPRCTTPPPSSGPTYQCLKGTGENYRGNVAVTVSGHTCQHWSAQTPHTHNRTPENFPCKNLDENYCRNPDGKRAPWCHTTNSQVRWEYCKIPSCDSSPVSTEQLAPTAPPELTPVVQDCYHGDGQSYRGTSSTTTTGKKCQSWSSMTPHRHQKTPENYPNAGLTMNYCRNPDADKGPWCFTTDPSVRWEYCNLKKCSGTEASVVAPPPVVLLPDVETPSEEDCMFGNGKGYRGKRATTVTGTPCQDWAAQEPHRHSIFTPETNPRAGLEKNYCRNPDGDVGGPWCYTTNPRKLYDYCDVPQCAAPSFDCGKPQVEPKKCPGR
Protocol: (§1) All assays were performed on 96-well microplates and the change in relative fluorescence unit (RFU) was measured by fluorescence spectrometer (BMG FLUOstar OPTIMA). The excitation/emission wavelength was 360/460 nm for the substrate Boc-VPR-AMC (Bachem AG, Hauptstrasse, Switzerland) and MeOSuc-AAPV-AMC (Bachem AG, Hauptstrasse, Switzerland) and 485/520 nm for BODIPY_FL casein (Invitrogen, Carlsbad, US). Stock solution of Boc-VPR-AMC was prepared by dissolving the solid in dimethyl sulfoxide to 100 mM and 10 mM for MeOSuc-AAPV. For BODIPY_FL casein, it was reconstituted to 1 mg/mL in 1xPBS. […] The % of inhibition was calculated by the following equation: % of Inhibition=(1−(Sample RFU − Min RFU)/(Max RFU − Min RFU)) X100
(§2) Each inhibition curves were done in triplicates with a minimum of five concentration points fitted. Fitting of each curve was done using SigmaPlot with the Four Parameter Logistic Function and the IC50 calculated. […] All tested compounds were reconstituted to stock solution in water.
(§3) The diluent for all the tested compounds, protein and substrate (except KLK7, which was done with 10 mM Tris pH 7.8) was 1xPBS pH 8.0–8.9. The serially diluted ligands were mixed with diluted bovine trypsin (Sigma, Dorset, U.K.) or activated KLK14, or KLK5, or activated KLK8 or matriptase (catalytic domain only, >90% purity by SDS-PAGE, endotoxin <0.1 ng/μg, R&D, Minneapolis, U.S.) or activated KLK7 or human neutrophil elastase (purified from human plasma, >95% purity by SDS-PAGE, Abcam, Cambridge, U.K.) or porcine pancreatic elastase 1 (Sigma, Dorset, U.K.) or human plasma kallikrein or human plasma plasmin (purified from human plasma, ≥95% purity by SDS-PAGE, BioVision, Milpitas, U.S.). 20μL of the ligand-protein mixture was pipetted to a well of a 96-well microplate in triplicates. The reaction was started by addition of 90–100 μL of the diluted substrate solution (contained 0.05% v/v Brij35) and the plate incubated at 25°C but 37°C for KLK7. RFU reading for each well was taken 6 minutes (trypsin) or 15 minutes (KLK14, KLK5, KLK8, matriptase, human neutrophil elastase, porcine pancreatic elastase 1, plasma kallikrein and plasmin) or 20 hours (KLK7) after substrate addition.

KLK7 = target: T2, KLK7 (Homo sapiens, UniProt P49862); settings: for inhibition at 11 µM: read-out: % inhibition of KLK7
T2 construct: purchased R&D
T2 sequence (P49862 30-253): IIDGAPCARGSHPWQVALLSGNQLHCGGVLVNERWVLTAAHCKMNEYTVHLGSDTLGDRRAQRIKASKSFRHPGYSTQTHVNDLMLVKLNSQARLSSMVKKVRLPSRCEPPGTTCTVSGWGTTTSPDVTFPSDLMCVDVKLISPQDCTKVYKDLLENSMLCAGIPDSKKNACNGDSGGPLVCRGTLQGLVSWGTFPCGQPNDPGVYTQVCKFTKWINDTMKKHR
Protocol: as §1, §2
(§4) Recombinant KLK7, KLK8 and KLK14 (>95% purity by SDS-PAGE, endotoxin <0.1 ng/μg, R&D, Minneapolis, U.S.) stocks were diluted with 1xPBS to a concentration of 120 nM. KLK7 and KLK14 were activated by addition of 1 mM f/c CaCl2 (Sigma, Dorset, U.K.), 0.05% v/v Brij35 (Sigma, Dorset, U.K.), 20 nM f/c thermolysin (Sigma, Dorset, U.K.) and incubated at 37°C for 1 hour. The reaction was stopped by addition of ethylenediaminetetraacetic acid (EDTA, 50 mM f/c). KLK8 was activated by addition of 11 nM f/c lysyl endopeptidase (Santa Cruz Biotechnology, Dallas, U.S.) and incubation at 37°C for 0.5 hour. […] The RFU value reached by the thermolysin control was used as the minimum RFU for calculating the % of inhibition for KLK7.
as §3

KLK8 = target: T3, KLK8 (Homo sapiens, UniProt O60259)
T3 construct: purchased R&D
T3 sequence (O60259 33-260): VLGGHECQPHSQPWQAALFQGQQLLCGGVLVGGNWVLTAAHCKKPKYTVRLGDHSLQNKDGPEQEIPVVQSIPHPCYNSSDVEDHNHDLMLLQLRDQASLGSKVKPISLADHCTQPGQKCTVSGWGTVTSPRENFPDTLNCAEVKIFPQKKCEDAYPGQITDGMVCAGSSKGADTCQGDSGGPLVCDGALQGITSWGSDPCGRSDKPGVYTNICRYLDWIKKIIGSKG
Protocol: as §1, §2, §4, §3

KLK5 = target: T4, KLK5 (Homo sapiens, UniProt Q9Y337); type: binding; settings: for Stoichiometry (N) / ΔH / ΔS / ΔG / Ka: ITC; for ΔG: 25°C; for Ka: 25°C (Table S2, unit not given)
T4 construct: purchased Novoprotein
T4 sequence (Q9Y337 23-293): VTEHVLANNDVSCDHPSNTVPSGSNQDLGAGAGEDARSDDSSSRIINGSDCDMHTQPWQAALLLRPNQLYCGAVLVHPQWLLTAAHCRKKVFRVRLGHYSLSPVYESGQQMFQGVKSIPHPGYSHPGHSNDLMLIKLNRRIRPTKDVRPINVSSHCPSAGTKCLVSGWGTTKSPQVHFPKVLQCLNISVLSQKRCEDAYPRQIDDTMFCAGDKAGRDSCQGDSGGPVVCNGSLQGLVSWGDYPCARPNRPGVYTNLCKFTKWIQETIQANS
Protocol: ITC experiments were performed on a MicroCal iTC200 calorimeter (GE Healthcare, Uppsala, Sweden) at 298.15 K with a stirring speed of 750 revolutions per minute. Concentrated (450 μM) ligand solutions were injected into protein (KLK5) solution (20 μM, 280 μL sample volume) in the sample cell. Injection volumes were 2 μL for I10H and Analogue 1 and 1 μL for Analogue 2 and 6 with a spacing of 120 seconds between each injection. Concentrations of ligands were determined by dried weight and they were reconstituted to 10 mM stock in H2O. Concentration of KLK5 was determined by UV280 calculated with an extinction coefficient of 38680 and molecular weight of 32KDa (including weight of glycosylation). The protein solution were buffer exchanged using spin column to 1xPBS (137 mM NaCl, 2.7 mM KCl, 4.3 mM Na2HPO4, 1.47 mM KH2PO4 pH 8.0) or 20 mM MES buffer (with 150 mM NaCl, pH 5.5). Ligand stocks were diluted in those buffers (4.5 μL + 95.5 μL buffer), and then equal v/v % of H2O was added to the protein solution after buffer exchange to ensure matching buffer contents. Heat of dilution was undetectable in control experiments. Data were analyzed using OriginLab version 7.0.

[1] = enzyme 24 nM, Boc-VPR-AMC 42 μM, 25°C, 15 minutes
[2] = at 11 μM, enzyme 10 nM, BODIPY_FL casein 6.5 μg/mL, 37°C, 20 hours
[3] = enzyme 9 nM, Boc-VPR-AMC 42 μM, 25°C, 15 minutes

Row | SMILES | IC50 (Human Plasma Plasmin) [nM] | inhibition at 11 µM (KLK7) [%] | IC50 (KLK8) [nM] | Kd (KLK5) [nM] | Stoichiometry (N) (KLK5; 1xPBS pH 8.0, 25°C) | ΔH (KLK5; 1xPBS pH 8.0, 25°C) [kcal/mol] | ΔS (KLK5; 1xPBS pH 8.0, 25°C) [cal mol^-1 kelvin^-1] | ΔG (KLK5) [kcal/mol] | Ka (KLK5) | IC50 (KLK7) [nM] | increase in binding affinity for KLK5 from I10H (KLK5; ITC Kd) | IC50 (Human Plasma Plasmin; [1]) [nM] | inhibition at 11 µM (KLK7; [2]) [%] | IC50 (KLK8; [3]) [nM] | Kd (KLK5; 1xPBS pH 8.0, 25°C, read-out: ITC Kd) [nM]
1 | CC[C@H](C)[C@@H]1NC(=O)[C@H](CO)NC(=O)[C@H](CCCCN)NC(=O)[C@H]([C@@H](C)O)NC(=O)[C@@H]2CSSC[C@H](NC(=O)[C@H](Cc3c[nH]cn3)NC(=O)[C@@H]3CCCN3C(=O)[C@@H]3CCCN3C1=O)C(=O)N[C@@H](Cc1c[nH]c3ccccc13)C(=O)N1CCC[C@H]1C(=O)N[C@@H](CC(=O)O)C(=O)NCC(=O)N[C@@H](CCCNC(=N)N)C(=O)N2 [Analogue 2] (cyclo(CTKSIPPHCWPDGR); disulfide 1-9) | 25 ± 1 | 28 | 563 ± 14 | 96 | 1.01±0.01 | 4.196 ± 0.065 | 46.2 | -9.579 | 1.0E7±1.8E6 |  |  |  |  |  | 
2 | CC[C@H](C)[C@@H]1NC(=O)[C@H](CO)NC(=O)[C@H](CCCNC(=N)N)NC(=O)[C@H]([C@@H](C)O)NC(=O)[C@@H]2CSSC[C@H](NC(=O)[C@H](Cc3c[nH]cn3)NC(=O)[C@@H]3CCCN3C(=O)[C@@H]3CCCN3C1=O)C(=O)N[C@@H](Cc1c[nH]c3ccccc13)C(=O)N1CCC[C@H]1C(=O)N[C@@H](CC(=O)O)C(=O)NCC(=O)N[C@@H](CCCNC(=N)N)C(=O)N2 [Analogue 6] (cyclo(CTRSIPPHCWPDGR); disulfide 1-9) | 407 ± 8 |  | 373 ± 31 | 20 | 1.01±0.01 | 2.014 ± 0.017 | 42.0 | -10.51 | 5.0E7±1.2E7 | 534 ± 29 | around 25 times |  |  |  | 
3 | CC[C@H](C)[C@@H]1NC(=O)[C@H](CO)NC(=O)[C@H](CCCCN)NC(=O)[C@H]([C@@H](C)O)NC(=O)[C@@H]2CSSC[C@H](NC(=O)[C@H](Cc3c[nH]cn3)NC(=O)[C@@H]3CCCN3C(=O)[C@@H]3CCCN3C1=O)C(=O)N[C@@H](Cc1ccccc1)C(=O)N1CCC[C@H]1C(=O)N[C@@H](CC(=O)O)C(=O)NCC(=O)N[C@@H](CCCNC(=N)N)C(=O)N2 [Analogue I10H] (cyclo(CFPDGRCTKSIPPH); disulfide 1-7) |  |  |  |  | 1.06±0.02 | 1.963 ± 0.051 | 35.5 | -8.621 | 2.1E6±5.6E5 |  |  | 161 ± 6 | 0 | 1680 ± 51 | 485
4 | CC[C@H](C)[C@@H]1NC(=O)[C@@H]2CCCN2C(=O)[C@@H]2CCCN2C(=O)[C@H]([C@@H](C)CC)NC(=O)[C@H](CO)NC(=O)[C@H](CCCCN)NC(=O)[C@H]([C@@H](C)O)NC(=O)[C@@H]2CSSC[C@H](NC1=O)C(=O)N[C@@H](Cc1ccccc1)C(=O)N1CCC[C@H]1C(=O)N[C@@H](CC(=O)O)C(=O)NCC(=O)N[C@@H](CCCNC(=N)N)C(=O)N2 [Native SFTI, Sunflower Trypsin Inhibitor 1, reference compound] |  |  |  |  |  |  |  |  |  |  |  | 24 ± 4 | 18 | 1290 ± 251 | 
